Test results: paper PMC7689916, “A Fluorescence Resonance Energy Transfer-Based Analytical Tool for Nitrate Quantification in Living Cells” (ACS Omega, 2020)
Positions count from the first letter of the chain named.

Experiments:
Test in all cases: FRET ratio (YFP/CFP, […] nm) titration of purified sensor
Assay type in all cases: binding
[1] = target: T1, NrtA (FLIP-NT; CFP_NrtA_YFP) (Synechocystis sp. PCC 6803, UniProt P73452)
T1 construct: FRET sensor: His6-CFP-NrtA-YFP; NrtA without signal peptide (first 36 residues), stop and penultimate codon removed (1227 bp, 409 residues); E. coli BL21-CodonPlus(DE3), Ni-NTA
T1 sequence (P73452 37-445): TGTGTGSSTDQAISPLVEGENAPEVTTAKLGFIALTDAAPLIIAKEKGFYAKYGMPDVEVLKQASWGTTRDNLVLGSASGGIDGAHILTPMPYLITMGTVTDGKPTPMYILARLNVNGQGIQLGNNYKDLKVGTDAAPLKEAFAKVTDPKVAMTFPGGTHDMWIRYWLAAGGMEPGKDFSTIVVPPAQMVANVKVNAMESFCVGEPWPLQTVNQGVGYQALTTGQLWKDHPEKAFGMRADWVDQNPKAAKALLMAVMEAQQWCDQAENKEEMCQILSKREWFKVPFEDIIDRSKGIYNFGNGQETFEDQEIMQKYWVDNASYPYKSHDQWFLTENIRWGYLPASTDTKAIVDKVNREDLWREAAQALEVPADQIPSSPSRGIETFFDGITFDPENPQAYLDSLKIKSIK

[2] = target: T2, NrtA (FLIP-NT; CFP_NrtA_YFP) (Synechocystis sp. PCC 6803, UniProt P73452, Q155I)
T2 construct: FRET sensor: His6-CFP-NrtA-YFP; NrtA without signal peptide (first 36 residues), stop and penultimate codon removed (1227 bp, 409 residues); E. coli BL21-CodonPlus(DE3), Ni-NTA
T2 sequence (P73452 37-445 Q155I): T1 sequence (P73452 37-445) with Q119I

[3] = target: T3, NrtA (FLIP-NT; CFP_NrtA_YFP) (Synechocystis sp. PCC 6803, UniProt P73452, G240Q)
T3 construct: FRET sensor: His6-CFP-NrtA-YFP; NrtA without signal peptide (first 36 residues), stop and penultimate codon removed (1227 bp, 409 residues); E. coli BL21-CodonPlus(DE3), Ni-NTA
T3 sequence (P73452 37-445 G240Q): T1 sequence (P73452 37-445) with G204Q

[4] = target: T4, NrtA (FLIP-NT; CFP_NrtA_YFP) (Synechocystis sp. PCC 6803, UniProt P73452, W102A)
T4 construct: FRET sensor: His6-CFP-NrtA-YFP; NrtA without signal peptide (first 36 residues), stop and penultimate codon removed (1227 bp, 409 residues); E. coli BL21-CodonPlus(DE3), Ni-NTA
T4 sequence (P73452 37-445 W102A): T1 sequence (P73452 37-445) with W66A

`O=[N+]([O-])O` [nitrate] gave a Kd [1] of 5 µM, a Kd [2] of 1 µM and a Kd [3] of 32 µM. For the same compound, the Kd [4] was 56 µM.
